Consider one compound from US9970037B2, “Methods and materials for making simvastatin and related compounds” (The Regents of the University of California, priority 2006, dated 2018).

One test concerns E. coli BL21(DE3)/pAW31. The test is described as follows: Whole cell biocatalysis with E. coli overexpressing LovD. It is filed as cell-based, Escherichia coli. The following applies: 0.5 mM lovastatin (sodium salt form). As for the experimental part: The BL21(DE3)/pAW31 overexpression strain was grown in a shake flask (200 mL) to an OD600 of 1.0, at which time 1 mM IPTG, 0.8 mM monacolin J and 4 mM of either benzoyl-SNAC or benzoyl-SMTG were added to the culture. Expression of LovD and bioconversion was performed at 18° C. The culture was extracted and analyzed for the formation of 8-benzoyl-monacolin J. When supplemented with benzoyl-SNAC, 84% conversion of monacolin J was detected within 20 hours post-induction. The product was lactonized and purified by a single silica-gel chromatography step. The NMR spectra confirmed the regioselective benzoylation of the C8 hydroxyl group as the diagnostic H8 multiplet is shifted downfield to δ 5.61.
Fermentation conditions: 500 mL culture with LB media with 30 mg/L kanamycin. At OD600 of 1.0, cells were concentrated to a final OD600 of 5.0 and induced with 1 mM IPTG. Substrates monacolin J and α-dimethylbutyryl-SNAC were added to a final concentration of 1 mM and 4 mM. At different time points, culture samples were collected, centrifuged, filtered and injected on to HPLC (20 μL). Extraction conditions: When maximum conversion was reached, the broth was acidified to pH of 2.0, extracted with ethyl acetate, dried and redissolved in toluene.
Whole-cell catalytic synthesis of simvastatin acid from MJ acid and DMB-S-MMP were performed as described (see, e.g., Xie et al., (2007) Appl Environ Microbiol 73: 2054-2060). The E. coli BL21(DE3)/pAW31 and YT2/pAW31 strains were cultured side-by-side for comparison. A single colony of the freshly transformed strains was used to inoculate a 5 mL LB culture supplemented with 35 mg/L kanamycin and grown overnight at 37° C. The next morning, 100 μL of the overnight culture was inoculated into 50 mL cultures containing LB broth, F1 minimal medium and F1 medium supplemented with 0.15 mg/L biotin. Growth rates were monitored by periodically measuring the OD600 reading. When OD600 reached ˜0.5, 100 μM IPTG was added to the culture and expression of LovD was performed at 20° C. for 16 hours. To mimic high density fermentation conditions, the cells were concentrated 10-fold before addition of substrates. Typically, a 14 mL aliquot of the culture was transferred to a 15 mL centrifuge tube and the cells were collected by centrifugation (4° C., 4000 g, 10 minutes). The cell pellet was gently resuspended in 1316 μl of the supernatant, followed by addition of 84 μl of a MJ acid stock solution (250 mM in H2O) (final concentration 15 mM). The concentrated culture was then separated into seven 200 μL samples and 1.2 μL of pure DMB-S-MMP was added to each sample (final concentration ˜25 mM). The culture was then shaken at 300 rpm at room temperature. At each time point, a total extraction was performed by adding 10 μL 20% SDS to lyse the cells, followed by liquid-liquid extraction with 500 μL EA/1% AcOH. The organic phase was removed, evaporated, and redissolved in 50 μL ACN for HPLC analysis. For the BL21(DE3) sample, an additional 1.2 μL aliquot of DMB-S-MMP was added after 12 hours to replenish the hydrolyzed substrates.
The E. coli BL21(DE3)/pAW31 strain was grown in LB medium at 37° C. to an OD600 of 0.5, at which time 100 μM IPTG was added to the culture and expression was performed at RT for 16 hours. A 10 ml culture was transferred to a 15 mL centrifuge tube. The cells were collected by centrifugation (4000 g, 10 minutes). The cell pellet was resuspended in 957 μl of the supernatant. The pH was adjusted to pH 7.9 with 1.0 N NaOH, followed by addition of 33 μl 450 mM MJ (final concentration 15 mM) and 6 μl pure DMB-S-MMP (final concentration ˜25 mM). The culture was then shaken at 300 rpm at room temperature. At each time point, a 4 μL aliquot was removed from the reaction mixture, quenched in 300 μL ethyl acetate containing 1% TFA.

Another test addresses T1, LovD (Aspergillus terreus, UniProt Q9Y7D1).
T1 sequence (Q9Y7D1 1-413): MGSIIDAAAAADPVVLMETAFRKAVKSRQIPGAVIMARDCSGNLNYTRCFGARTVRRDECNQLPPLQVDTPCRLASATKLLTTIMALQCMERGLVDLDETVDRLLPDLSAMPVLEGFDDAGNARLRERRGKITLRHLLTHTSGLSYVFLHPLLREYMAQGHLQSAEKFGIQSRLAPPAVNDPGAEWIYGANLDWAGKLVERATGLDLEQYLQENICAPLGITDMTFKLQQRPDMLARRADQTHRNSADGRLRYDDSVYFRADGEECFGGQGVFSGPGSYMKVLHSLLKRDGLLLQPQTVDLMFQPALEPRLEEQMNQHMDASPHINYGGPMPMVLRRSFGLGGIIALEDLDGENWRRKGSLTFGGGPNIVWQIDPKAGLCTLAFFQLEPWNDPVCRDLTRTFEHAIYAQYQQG
Further details: 6xHis (N); made in house; host or cells: E. coli BL21(DE3)/pAW31 (pET28a). The following applies: Xie et al., 2006; cited from earlier work.

Turning to `CC[C@H](C)C(=O)O[C@H]1C[C@@H](C)C=C2C=C[C@H](C)[C@H](CC[C@@H]3C[C@@H](O)CC(=O)O3)[C@H]21` [lovastatin, reference compound], in the test on E. coli BL21(DE3)/pAW31, the “conversion rate of whole cell hydrolysis” value was approximately 0.01 mM per hour. The “hydrolysis to monacolin J by whole cells” value with E. coli BL21(DE3)/pAW31 (48 hours) is 91%. Moreover, on LovD, the “kcat of LovD hydrolysis of lovastatin into monacolin J in vitro (previously reported)” value was 0.0035 s⁻¹.
